Measurements: US4263318A, “N-alkoxy- and N-aryloxysulfinylcarbamate esters” (priority 1979, dated 1981)
Read-outs that look alike come from different tables or passages of the source.

Assays:
Assay type in all cases: in vivo
[1] = system: house flies, Musca domestica; test: Insecticidal activity against house flies (topical on the notum, mortality at 24 h); settings: for LD50: Musca domestica, topical, read-out: House flies LD50
Description: (§1) Representative compounds of the N-aryloxy- and N-alkoxysulfinylcarbamate esters of the invention were tested for insecticidal activity against two insect species, house flies, Musca domestica, and mosquito larvae, Culex pipiens. Stock 1% concentrated solutions of each of the test compounds were made in acetone, and such solutions diluted with acetone to a concentration of 0.001-0.1%. House files were treated topically on the notum by 1 μL of each of the diluted acetone solutions and percent mortality was counted 24 hours after application. Insects were held at a constant temperature of 60° F. Larvicidal activity was determined by applying 1 ml of the acetone solutions in 100 ml of water containing 20 3rd instar mosquito larvae. Results are presented as LD50 in μg/g for house flies and LC50 in ppm for mosquito larvae.

[2] = system: mosquito larvae, Culex pipiens; test: Larvicidal activity against mosquito larvae; settings: 1 ml acetone solution in 100 ml water containing 20 3rd instar larvae
Description: as §1

[3] = Mammalian toxicity, oral, Swiss white mice; settings: mouse, in vivo
Description: (§2) Mammalian toxicity was determined against Swiss white mice.

[4] = system: Swiss white mice; test: Mammalian toxicity, oral, Swiss white mice; settings: compared with aldicarb / carbofuran
Description: as §2

[5] = oral, corn oil carrier, read-out: Mice LD50
[6] = 1 μL acetone solution on the notum, mortality 24 hours after application, 60° F

SMILES	LD50 ([1]; 24 h) [mg/kg]	Culex LC50 [2] [ppm]	LD50 [3, 5] [mg/kg]	other results
CCCCCCOS(=O)N(C)C(=O)Oc1cccc2c1OC(C)(C)C2 (centres unmarked) [Example I, 2,3-dihydro-2,2-dimethylbenzofuranyl-7(methyl)(hexoxysulfinyl)carbamate]	13	0.0025	280	–
CN(C(=O)Oc1cccc2c1OC(C)(C)C2)S(=O)OC(C)(C)C (centres unmarked) [II, 2,3-dihydro-2,2-dimethylbenzofuranyl-7(methyl)(t-butoxysulfinyl)carbamate]	2.2	0.0058	40	–
CCCCOS(=O)N(C)C(=O)Oc1cccc2c1OC(C)(C)C2 (centres unmarked) [III, 2,3-dihydro-2,2-dimethylbenzofuranyl-7(methyl)(n-butoxysulfinyl)carbamate]	16	–	160	–
CN(C(=O)Oc1cccc2c1OC(C)(C)C2)S(=O)Oc1ccccc1 (centres unmarked) [IV, 2,3-dihydro-2,2-dimethylbenzofuranyl-7(methyl)(phenoxysulfinyl)carbamate]	6.4	0.0055	42	–
CC(C)Oc1ccccc1OC(=O)N(C)S(=O)OC(C)(C)C (centres unmarked) [IX, 2-isopropoxyphenyl (methyl)(t-butoxysulfinyl)carbamate]	65	–	400	–
Cc1cccc(C)c1OS(=O)N(C)C(=O)Oc1cccc2c1OC(C)(C)C2 (centres unmarked) [V, 2,3-dihydro-2,2-dimethylbenzofuranyl-7(methyl)(2,6-dimethylphenoxysulfinyl)carbamate]	13.5	–	100	–
CCCCOS(=O)N(C)C(=O)Oc1cccc(C(C)C)c1 (centres unmarked) [VI, 3-isopropylphenyl (methyl)(n-butoxysulfinyl)carbamate]	50	–	–	–
CCCCCCOS(=O)N(C)C(=O)Oc1cccc(C(C)C)c1 (centres unmarked) [VII, 3-isopropylphenyl (methyl)(n-hexoxysulfinyl)carbamate]	80	–	> 1000	–
CCCCCCOS(=O)N(C)C(=O)Oc1ccccc1OC(C)C (centres unmarked) [VIII, 2-isopropoxyphenyl (methyl)(n-hexoxysulfinyl)carbamate]	42	0.01	> 1000	–
CCCCCCOS(=O)N(C)C(=O)ON=C(C)SC (centres unmarked) [X, S-methyl N-[N'-methyl-N'-hexoxysulfinylcarbamoyloxy]thioacetimidate]	–	–	260	LD50 [1, 6]: 6.5 mg/kg
CCCCOS(=O)N(C)C(=O)ON=C(C)SC (centres unmarked) [XI, S-methyl N-[N'-methyl-N'-butoxysulfinylcarbamoyloxy]thioacetimidate]	–	–	–	LD50 [1, 6]: 5.5 mg/kg
CCCCCCCCCCOS(=O)N(C)C(=O)ON=CC(C)(C)SC (centres unmarked) [XII, 2-methyl-2-(methylthio)propionaldehyde O-[(methyl)(decoxysulfinyl)carbamoyl]oxime]	–	0.006	60	LD50 [1, 6]: 11.5 mg/kg; toxicity to house flies compared with parent carbamate ([1]; compared with aldicarb / carbofuran): comparable toxicity; mammalian safety/toxicity compared with parent carbamate [4]: much safer to mammals
CCCCCCOS(=O)N(C)C(=O)Oc1cccc2ccccc12 (centres unmarked) [XIII, 1-naphthyl(methyl)(hexoxysulfinyl)carbamate]	360	–	> 1000	–
CNC(=O)O/N=C/C(C)(C)SC [aldicarb, 2-methyl-2-(methylthio)propionaldehyde 0-(methylcarbamoyl)oxime, reference compound]	–	–	–	LD50 ([3]; po, comparison value for parent aldicarb, read-out: LD50 (parent carbamate aldicarb, mammalian toxicity, text)): 0.3 to 0.5 mg/kg
